Measured values reported in paper PMC12297423, “Dual α-amylase and α-glucosidase inhibition by 1,2,4-triazole derivatives for diabetes treatment” (Scientific Reports, 2025).
Where two headings read alike, the source gives them in different places.

Assays:
[1] = molecular target: Saccharomyces cerevisiae α-glucosidase; experiment: In vitro α-glucosidase inhibition assay (BioVision kit, pNPG); format: biochemical; conditions: for %inh α-glucosidase: Table 2S
Protocol: Using BioVision’s α-Glucosidase Inhibitor Screening Kit (Colorimetric) (Catalogue #K938-100) at (OD: 410 nm), the in vitro α-glucosidase suppression effect for the designed 1,2,4-triazole derivatives 3, 4, 6, 8, 9, and 10 was carried out. The results were analyzed on a multi-well spectrophotometer (ELISA reader) using a 96-well microplate in compliance with the manufacturer’s instructions as previously described[49],[50]. The α-glucosidase inhibition assay was conducted using Saccharomyces cerevisiae α-glucosidase (0.5–1 U/mL in phosphate buffer, pH 6.8). Test compounds (63–1000 µg/mL) were pre-incubated with the enzyme at 37 °C for 10 min, followed by addition of pNPG (5 mM) and further incubation for 30 min. The reaction was stopped with 0.2 M Na2CO3, and absorbance was measured at 405 nm. […] Inhibition (%) was calculated as above, and IC50 values were derived from nonlinear regression analysis Table 2S.

[2] = molecular target: T1, porcine pancreatic α-amylase (Sus scrofa, UniProt P00690); experiment: In vitro α-amylase inhibition assay (BioVision kit / modified DNSA method); format: biochemical; conditions: for %inh α-amylase: Table 1S
T1 construct: purchased BioVision K482-100
T1 sequence (P00690 16-511): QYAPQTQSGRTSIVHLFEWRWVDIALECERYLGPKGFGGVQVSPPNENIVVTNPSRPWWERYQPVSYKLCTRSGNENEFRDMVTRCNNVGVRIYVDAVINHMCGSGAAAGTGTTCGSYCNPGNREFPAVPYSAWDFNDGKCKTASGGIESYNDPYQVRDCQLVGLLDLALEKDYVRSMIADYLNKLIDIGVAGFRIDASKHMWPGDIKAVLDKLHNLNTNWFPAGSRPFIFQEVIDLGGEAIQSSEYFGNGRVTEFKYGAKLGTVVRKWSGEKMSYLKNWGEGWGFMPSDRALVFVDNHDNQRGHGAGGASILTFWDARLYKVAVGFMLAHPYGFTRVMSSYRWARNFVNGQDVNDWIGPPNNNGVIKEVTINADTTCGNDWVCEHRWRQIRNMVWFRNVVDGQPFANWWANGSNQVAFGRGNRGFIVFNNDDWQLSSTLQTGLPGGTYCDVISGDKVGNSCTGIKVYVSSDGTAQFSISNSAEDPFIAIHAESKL
Protocol: The α-amylase inhibition assay was performed using a modified DNSA (3,5-dinitrosalicylic acid) method. Test compounds (dissolved in DMSO) were serially diluted (100, 10, 1, 0.1, and 0.01 µg/mL) and pre-incubated with porcine pancreatic α-amylase (0.5 U/mL in phosphate buffer, pH 6.8) at 37 °C for 10 min. Starch solution (1% w/v) was added, and the reaction proceeded for 30 min at 37 °C. The reaction was terminated by adding DNSA reagent, followed by heating at 85 °C for 10 min. Absorbance was measured at 540 nm using a microplate reader. […] The percentage inhibition was calculated as: [(Acontrol–Asample)/Acontrol] × 100, where Acontrol represents enzyme activity without inhibitor. IC50 values were determined from dose-response curves using GraphPad Prism. Kinetic parameters (KActivity) were derived from ∆RFU (Relative Fluorescence Units) and slope values Table 1S.

[3] = read-out: α-amylase inhibition IC50 (converted)
[4] = table printed in Fig. 9, read-out: α- Amylase IC50 (converted)

| Structure (SMILES) | α-glucosidase inhibition IC50 [1] [mg/L] | %inh α-glucosidase ([1]; conc 63 (µg/mL)) [%] | %inh α-glucosidase ([1]; conc 125 (µg/mL)) [%] | %inh α-glucosidase ([1]; conc 250 (µg/mL)) [%] | %inh α-glucosidase ([1]; conc 500 (µg/mL)) [%] | %inh α-glucosidase ([1]; conc 1000 (µg/mL)) [%] | %inh α-amylase ([2]; conc 0.01 (µg/mL)) [%] | %inh α-amylase ([2]; conc 0.1 (µg/mL)) [%] | %inh α-amylase ([2]; conc 1 (µg/mL)) [%] | %inh α-amylase ([2]; conc 10 (µg/mL)) [%] | %inh α-amylase ([2]; conc 100 (µg/mL)) [%] | IC50 [2, 3] [µM] | IC50 [2, 4] [µM] |
| --- | --- | --- | --- | --- | --- | --- | --- | --- | --- | --- | --- | --- | --- |
| COc1ccc(Cc2nnc(SCC(=O)Nc3ccc(O)cc3)n2-c2ccccc2)cc1 [Compound 9, N-(4-hydroxyphenyl)-2-((5-(4-methoxybenzyl)-4-phenyl-4H-1,2,4-triazol-3-yl)thio)acetamide] | 0.77 ± 0.02 | 4.22 | 7.76 | 14 | 31.9 | 68.2 | 20.6 | 35.3 | 48.3 | 73.3 | 90 | 1.41 | 1.42 |
| COc1ccc(Cc2nnc(SCC(=O)Nc3ccc(Br)cc3)n2-c2ccccc2)cc1 [Compound 10, N-(4-bromophenyl)-2-((5-(4-methoxybenzyl)-4-phenyl-4H-1,2,4-triazol-3-yl)thio)acetamide] | 0.31 ± 0.01 | 16.3 | 25.1 | 39.9 | 58 | 82.8 | 29.2 | 41.2 | 56.1 | 77.6 | 92.3 | 0.51 | 0.528 |
| COc1ccc(Cc2nnc(SCC(=O)Nc3ccccc3)n2-c2ccccc2)cc1 [Compound 3, 2-((5-(4-methoxybenzyl)-4-phenyl-4H-1,2,4-triazol-3-yl)thio)-N-phenylacetamide] | 0.36 ± 0.01 | 15.7 | 30 | 40.9 | 58.5 | 77 | 19.9 | 36.7 | 58.4 | 83.4 | 92.3 | 0.859 | 0.876 |
| C[C@H]1O[C@H](O[C@H]2[C@H](O)[C@@H](O)[C@@H](O[C@H]3[C@H](O)[C@@H](O)C(O)O[C@@H]3CO)O[C@@H]2CO)[C@H](O)[C@@H](O)[C@@H]1N[C@H]1C=C(CO)[C@@H](O)[C@H](O)[C@H]1O (some centres unmarked) [Acarbose, reference compound] | – | 8.91 | 28 | 40.6 | 58.6 | 76.8 | – | – | – | – | – | – | – |
| COc1ccc(Cc2nnc(SCC(=O)Nc3ccc(C(=O)O)cc3)n2-c2ccccc2)cc1 [Compound 6, 4-(2-((5-(4-methoxybenzyl)-4-phenyl-4H-1,2,4-triazol-3-yl)thio)acetamido)benzoic acid] | 0.83 ± 0.03 | 1.67 | 4.01 | 7.55 | 28.9 | 69.2 | 14.4 | 19.9 | 40.6 | 74.1 | 91.3 | 2.61 | 2.62 |
| CCOC(=O)c1ccc(NC(=O)CSc2nnc(Cc3ccc(OC)cc3)n2-c2ccccc2)cc1 [Compound 8, Ethyl 4-(2-((5-(4-methoxybenzyl)-4-phenyl-4H-1,2,4-triazol-3-yl)thio)acetamido)benzoate] | 0.67 ± 0.02 | 1.46 | 5.94 | 18.4 | 38.9 | 67.3 | 12 | 29.3 | 41.6 | 63.1 | 88.7 | 2.89 | 2.89 |
| COc1ccc(Cc2nnc(SCC(=O)Nc3ccc(C(C)=O)cc3)n2-c2ccccc2)cc1 [Compound 4, N-(4-acetylphenyl)-2-((5-(4-methoxybenzyl)-4-phenyl-4H-1,2,4-triazol-3-yl)thio)acetamide] | 0.27 ± 0.01 | 19.9 | 36.6 | 50.9 | 63.6 | 82.4 | 25.8 | 44.6 | 62.6 | 85.7 | 93.1 | 0.402 | 0.419 |
